Results reported in patent US20220315534A1, “BETA ADRENERGIC AGONIST AND METHODS OF USING THE SAME” (Curasen Therapeutics, Inc., priority 2019, published 2022).

Legend:
[1] = molecular target: T1, β2-adrenergic receptor (B2-AR) (Homo sapiens, UniProt P07550); assay: cAMP Gs dynamic HTRF assay, cells expressing β2-adrenergic receptor; assay type: cell-based; conditions: CHO-K1 (HitHunter) cells; read-out: Average pEC50 [Receptor subtype: B2-AR; Cell type: CHO-K1 (HitHunter)] (converted)
T1 construct: expressed in transfected cells
Method: (§1) cAMP homogeneous time-resolved fluorescence (HTRF): experimental methods. Compound efficacy is determined using the cAMP Gs dynamic HTRF assay (Cisbio, catalog #62AM4PEC) largely following the manufacturer's instructions, also detailed below.
(§2) Standard serial dilution curves are 10-point, 5-fold dilutions starting from a highest concentration of 10 μM. […] Assay plates are centrifuged at 500×g for 10 seconds. Compounds and IBMX are prepared at 2× final dose to compensate for addition of cells.
(§3) Cell preparation: 1× stimulation buffer, washing PBS (Dulbecco's phosphate-buffered saline, —Mg —Ca; Caisson Labs, catalog #PBL01), assay PBS (Dulbecco's phosphate-buffered saline, +Mg, +Ca; Caisson Labs, catalog #PBL02) and Versene (0.02% EDTA disodium salt solution in PBS without calcium or magnesium; Caisson Labs, catalog #EDL01) are pre-warmed to 37° C. Cells expressing beta-adrenergic receptor were washed in washing PBS to remove growth medium and then released from the surface by incubating with Versene for 5-10 minutes at 37° C. Cells are harvested using assay PBS, counted manually by hemocytometer or by an automated cell counter, pelleted by centrifugation (200×g, 5 minutes) and resuspended in 37° C. 1× stimulation buffer to a final density of […]. 5 μL of the suspended cell solution (7500 cell total) are added to all wells of the 384 well assay plate, the assay plate was covered with an Axygen® plate seal (Corning PCR-SP) and incubated in a humidified 37° C. environment supplemented with 5% CO2 for 30 minutes.
(§4) HTRF reagent addition, reading and data analysis: After 30 minutes of cell stimulation with test compound, the assay plates are centrifuged at 500×g for 10 seconds, and incubation was stopped with the addition of 5 μL cAMP-D2 acceptor, diluted 1:21 in detection and lysis buffer 2 (Cisbio 62CL2FDF) was added to all cells. Subsequently, 5 μL Anti-cAMP-Eu Donor, diluted 1:21 in detection and lysis buffer 2, was added to cells. Plates were sealed and reactions gently ‘vortexed’ at 900 rpm on a Heidolph Titramax 1000 for at least 30 minutes at room temperature. Plates are centrifuged again at 500×g for 10 seconds, and HTRF was measured using a Tecan Spark plate reader at 50 flashes per well. […] Potency estimates (EC50 and pEC50) are derived from the four-parameter nonlinear regression of the concentration-effect curve and an estimate of relative efficacy is determined by comparing the magnitude of the test compound HTRF signal window (min-max dose) with the signal window of the full agonist control, isoproterenol.

[2] = molecular target: T2, β1-adrenergic receptor (B1-AR) (Homo sapiens, UniProt P08588); assay: cAMP Gs dynamic HTRF assay, cells expressing β1-adrenergic receptor; assay type: cell-based; conditions: CHO-K1 (HitHunter) cells; read-out: Average pEC50 [Receptor subtype: B1-AR; Cell type: CHO-K1 (HitHunter)] (converted)
T2 construct: expressed in transfected cells
Method: as §1, §2, §3, §4

T2 sequence (P08588 whole entry): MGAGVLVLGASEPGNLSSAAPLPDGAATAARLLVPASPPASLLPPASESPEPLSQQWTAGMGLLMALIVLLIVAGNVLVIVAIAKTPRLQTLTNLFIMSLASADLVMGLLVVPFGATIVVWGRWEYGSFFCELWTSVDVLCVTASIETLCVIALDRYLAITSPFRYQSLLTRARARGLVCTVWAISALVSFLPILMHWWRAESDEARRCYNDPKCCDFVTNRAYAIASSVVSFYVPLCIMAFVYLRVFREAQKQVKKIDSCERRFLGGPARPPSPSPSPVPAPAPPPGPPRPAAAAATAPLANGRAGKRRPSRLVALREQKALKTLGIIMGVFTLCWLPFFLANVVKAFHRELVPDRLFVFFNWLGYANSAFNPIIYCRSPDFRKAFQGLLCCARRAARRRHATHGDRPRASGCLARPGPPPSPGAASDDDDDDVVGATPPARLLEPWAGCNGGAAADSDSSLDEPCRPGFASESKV
T1 sequence (P07550 whole entry): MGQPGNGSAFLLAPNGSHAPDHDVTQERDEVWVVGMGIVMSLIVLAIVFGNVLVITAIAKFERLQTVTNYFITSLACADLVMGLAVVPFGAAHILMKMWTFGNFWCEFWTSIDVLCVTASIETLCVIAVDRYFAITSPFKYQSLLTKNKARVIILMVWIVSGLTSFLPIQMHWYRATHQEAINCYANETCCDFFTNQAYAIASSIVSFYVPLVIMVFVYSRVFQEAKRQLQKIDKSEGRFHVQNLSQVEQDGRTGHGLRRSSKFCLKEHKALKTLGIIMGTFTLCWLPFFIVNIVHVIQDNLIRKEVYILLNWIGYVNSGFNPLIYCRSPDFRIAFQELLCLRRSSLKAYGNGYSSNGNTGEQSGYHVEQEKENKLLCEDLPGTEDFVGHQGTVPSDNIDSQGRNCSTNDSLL

Row | Structure (SMILES) | EC50 [1] [nM] | EC50 [2] [nM]
1 | CC(C)(C)NC[C@@H](O)c1cccc2ccc(C#N)nc12 [Compound 04-71] | 100 to 1000 | 100 to 1000
2 | CC(C)(C)NC[C@H](O)c1cccc2ccc(C#N)nc12 [Compound 04-72] | < 10 | < 10
3 | CC(C)(C)NC[C@H](O)c1ccnc2cccnc12 [Compound 04-73] | 10 to 100 | 10 to 100
4 | CC(C)(C)NC[C@@H](O)c1cccc2nccnc12 [Compound 04-74] | > 1000 | > 1000
5 | CC(C)(C)NC[C@H](O)c1cccc2nccnc12 [Compound 04-75] | < 10 | < 10
6 | CC(C)(C)NC[C@H](O)c1cc(F)cc2cccnc12 [Compound 04-76] | < 10 | < 10
7 | CC(C)(C)NC[C@@H](O)c1ccc(F)c2cccnc12 [Compound 04-79] | 100 to 1000 | 100 to 1000
8 | CC(C)(C)NC[C@H](O)c1ccc(F)c2cccnc12 [Compound 04-80] | < 10 | < 10
9 | CC(C)(C)NC[C@@H](O)c1ccc(C(F)(F)F)c2cccnc12 [Compound 04-81] | 100 to 1000 | 100 to 1000
10 | CC(C)(C)NC[C@H](O)c1ccc(C(F)(F)F)c2cccnc12 [Compound 04-82] | < 10 | < 10
11 | Cc1ccnc2c([C@H](O)CNC(C)(C)C)cccc12 [Compound 04-83] | 100 to 1000 | 100 to 1000
12 | Cc1ccnc2c([C@@H](O)CNC(C)(C)C)cccc12 [Compound 04-84] | 10 to 100 | < 10
13 | CC(C)(C)NC[C@H](O)c1cccc2ccc(C(F)(F)F)nc12 [Compound 04-85] | < 10 | < 10
14 | CC(C)(C)NC[C@@H](O)c1cccc2ccc(C(F)(F)F)nc12 [Compound 04-86] | 100 to 1000 | 100 to 1000
15 | Cc1ccc2cccc([C@H](O)CNC(C)(C)C)c2n1 [Compound 04-87] | 100 to 1000 | 100 to 1000
16 | Cc1ccc2cccc([C@@H](O)CNC(C)(C)C)c2n1 [Compound 04-88] | < 10 | < 10
17 | CC(C)(C)NC[C@H](O)c1c(F)ccc2cccnc12 [Compound 04-90] | > 1000 | 100 to 1000
18 | CC(C)(C)NC[C@@H](O)c1cccc2cccnc12 [Compound 04-93] | 100 to 1000 | 100 to 1000
19 | CC(C)(C)NC[C@H](O)c1cccc2cccnc12 [Compound 04-94] | < 10 | < 10
20 | CC(C)(C)NCC(O)c1ccnc2ccccc12 (stereo not shown) [Compound 04-96] | 10 to 100 | 10 to 100
21 | CC(C)(C)NC[C@H](O)c1ncc(O)c2ccccc12 [Compound 04-97] | > 1000 | > 1000

Row | Structure (SMILES) | EC50 [1] [nM] | EC50 [2] [nM]
22 | CC(C)(C)NCC(O)c1cccc2ccccc12 (stereo not shown) [Compound 04-98] | 10 to 100 | < 10
23 | CC(C)(C)NC[C@H](O)c1cccc2c1C(C)(C)C(=O)N2 [Compound 04-102] | 100 to 1000 | 100 to 1000
24 | CC(C)(C)NC[C@H](O)c1cccc2c1C1(CC1)C(=O)N2 [Compound 04-103] | 100 to 1000 | 100 to 1000
25 | CC(C)(C)NC[C@H](O)c1cc(C#N)cc2[nH]ncc12 [Compound 04-104] | < 10 | 100 to 1000
26 | CC(C)(C)NC[C@H](O)c1cccc2[nH]ccc12 [Compound 04-105] | > 1000 | > 1000
27 | CC(C)(C)NC[C@H](O)c1c2cn[nH]c2cc[n+]1[O-] [Compound 04-106] | 100 to 1000 | 100 to 1000
28 | CC(C)(C)NC[C@@H](O)c1c2cn[nH]c2cc[n+]1[O-] [Compound 04-107] | 100 to 1000 | > 1000
29 | CC(C)(C)NC[C@H](O)c1ccc(Cl)c2[nH]ncc12 [Compound 04-108] | < 10 | < 10
30 | Cc1cc([C@@H](O)CNC(C)(C)C)c2cn[nH]c2c1 [Compound 04-109] | < 10 | 10 to 100
31 | CC(C)(C)NC[C@H](O)c1cccc2c1CC(=O)N2 [Compound 04-110] | > 1000 | > 1000
32 | Cc1c[nH]c2cccc([C@@H](O)CNC(C)(C)C)c12 [Compound 04-111] | > 1000 | > 1000
33 | CC(C)(C)NC[C@H](O)c1cccc2[nH]cc(F)c12 [Compound 04-112] | < 10 | < 10
34 | CC(C)(C)NC[C@H](O)c1cccc2[nH]nc(F)c12 [Compound 04-113] | < 10 | < 10
35 | Cc1c[nH]c2nccc([C@@H](O)CNC(C)(C)C)c12 [Compound 04-114] | > 1000 | > 1000
36 | CC(C)(C)NC[C@H](O)c1ccc2nn[nH]c2c1 [Compound 04-115] | 10 to 100 | 100 to 1000
37 | CC(C)(C)NC[C@H](O)c1cccc2[nH]c(=O)oc12 [Compound 04-116] | < 10 | < 10
38 | CC(C)(C)NC[C@H](O)c1cc(Cl)c2[nH]cnc2c1 [Compound 04-117] | < 10 | 100 to 1000
39 | Cc1nc2cc([C@@H](O)CNC(C)(C)C)ccc2[nH]1 [Compound 04-118] | > 1000 | > 1000
40 | CC(C)(C)NC[C@H](O)c1cccc2[nH]c3cccnc3c12 [Compound 04-119] | < 10 | < 10
41 | CC(C)(C)NC[C@H](O)c1cccc2c1C1(CC1)CN2 [Compound 04-120] | 100 to 1000 | > 1000
42 | CC(C)(C)NC[C@H](O)c1ccc(F)c2[nH]c3ccccc3c12 [Compound 04-122] | < 10 | < 10

Row | Structure (SMILES) | EC50 [1] [nM] | EC50 [2] [nM]
43 | CC(C)(C)NC[C@H](O)c1ccc2c(c1)C1(CC1)CN2 [Compound 04-123] | 100 to 1000 | > 1000
44 | CC(C)(C)NC[C@H](O)c1ccc2[nH]cnc2c1 [Compound 04-124] | < 10 | 10 to 100
45 | COc1ccc(C[C@@H](C)NC[C@H](O)c2cccc3[nH]c4ccccc4c23)cc1 [Compound 04-125] | < 10 | 10 to 100
46 | CC(C)(C)NC[C@@H](O)c1ccnc2[nH]ncc12 [Compound 04-126] | > 1000 | > 1000
47 | CC(C)(C)NC[C@H](O)c1ccnc2[nH]ncc12 [Compound 04-127] | < 10 | 10 to 100
48 | CC(C)(C)NC[C@H](O)c1ccc2c(c1)[nH]c1ncccc12 [Compound 04-128] | 100 to 1000 | > 1000
49 | CC(C)(C)NC[C@H](O)c1cccc2c1CCCC(=O)N2 [Compound 04-129] | 10 to 100 | > 1000
50 | Cc1ccc([C@@H](O)CNC(C)(C)C)c2cn[nH]c12 [Compound 04-130] | < 10 | < 10
51 | CC(C)(C)NC[C@H](O)c1cccc2[nH]c3ncccc3c12 [Compound 04-131] | < 10 | < 10
52 | CC(C)(C)NC[C@H](O)c1cccc2c1OC(C)(C)C(=O)N2 [Compound 04-133] | < 10 | < 10
53 | CC(C)(C)NC[C@@H](O)c1ccc2cccc(C#N)c2n1 [Compound 04-134] | 100 to 1000 | 10 to 100
54 | CC(C)(C)NC[C@H](O)c1ccc2cccc(C#N)c2n1 [Compound 04-135] | < 10 | < 10
55 | CC(C)(C)NC[C@@H](O)c1ccc2ccc(C(F)(F)F)cc2n1 [Compound 04-136] | 100 to 1000 | > 1000
56 | CC(C)(C)NCC(O)c1ccc2ccc(C(F)(F)F)cc2[n+]1[O-] (stereo not shown) [Compound 04-137] | 10 to 100 | 100 to 1000
57 | Cc1ccc2[nH]ncc2c1[C@@H](O)CNC(C)(C)C [Compound 04-138] | 100 to 1000 | > 1000
58 | CC(C)(C)NC[C@H](O)c1c(Cl)ccc2[nH]ncc12 [Compound 04-139] | > 1000 | > 1000
59 | CC(C)CNC[C@H](O)c1ccc2nc[nH]c2c1 [Compound 04-140] | 100 to 1000 | > 1000
60 | CC(C)(CO)NC[C@H](O)c1cccc2[nH]c(=O)ccc12 [Compound 04-141] | < 10 | 10 to 100
61 | O=c1ccc2c([C@@H](O)CNC3CCC3)cccc2[nH]1 [Compound 04-142] | < 10 | < 10
62 | CC(C)CNC[C@H](O)c1cccc2[nH]c(=O)ccc12 [Compound 04-143] | 10 to 100 | 10 to 100
